{"source": "patent US20230131501A1", "about": "“THERAPEUTIC USES OF INHIBITORS OF THE RNA-BINDING PROTEIN HuR” (University of Kansas, priority 2020, published 2023)", "key": {"[1]": {"system": "2LMP subclone of MDA-MB-231, lung metastasis", "test": "Experimental metastasis model (2LMP, lung metastasis)", "type": "in vivo, mice", "protocol": "For the experimental metastasis model, Dr. Marc Lippman kindly gifted a 2LMP subclone that was generated from MDA-MB-231 and that formed lung metastasis in mice. 0.5×10^6 2LMP cells stably expressing luciferase in 0.3 mL DMEM were intravenously injected into tail veins of mice. Immediately following injection, mice were imaged by bioluminescence to assure wide distribution and quality of the initial injection. The mice were then randomized into two groups and treated with 50 mg/kg KH-3 or vehicle control via intraperitoneal injection five times per week for five weeks. Bioluminescence imaging was taken weekly to monitor the metastasis burden at lung. […] Imaging was then taken twice a week after first detectable signaling at lung. All animal experiments were carried out according to the protocol approved by the Institutional Animal Use and Care Committee at the University of Kansas."}, "MIA PaCa2 cells": {"system": "MIA PaCa2 cells", "test": "MTT cell viability", "type": "cell-based", "details": "Homo sapiens, MIA PaCa-2; MIA PaCa2, 48 hours", "protocol": "(§1) Pancreatic cancer cell lines were obtained from the American Type Culture Collection (Manassas, Va.). hTERT-HPNE cells (immortalized human pancreatic ductal epithelial cells) were donated by Dr. Anant at the University of Kansas Medical Center. MTT assay was used for cell viability detection, with starting cell number in 96-well plate of 3000/well (for 72 h treatment) or 5000/well (for 48 h treatment).\n(§2) Pancreatic cancer cell lines with different endogenous HuR expression levels were treated with serial concentrations of KH-3 for 48 hours. KH-3 induced cytotoxicity in pancreatic cancer cells, with the sensitivity correlated to endogenous HuR protein levels (FIG. 30). MIA PaCa2 cells have the highest HuR protein abundance among the tested cell lines and were the most sensitive to HuR treatment (IC50=5 μM). […] BxPC-3 cells, another human pancreatic cancer cell line, have HuR expression level in the middle, and the IC50 of KH-3 was in the middle (10 μM). A non-cancerous human pancreatic ductal epithelial cell line (hTERT-HPNE) was tested under the same conditions. hTERT-HPEN cells have the lowest abundance of HuR protein compared to the cancer cells, and the cytotoxicity of KH-3 to these cells were minimal (IC50>>40 μM). There is an inverse correlation in the tested cell lines between the HuR expression levels and the sensitivity to KH-3 treatment (FIG. 30) (R=−0.71 by Pearson Tests)."}, "PANC-1 cells": {"system": "PANC-1 cells", "test": "MTT cell viability", "type": "cell-based", "details": "Homo sapiens; PANC-1, 48 hours", "protocol": "as §1, §2"}, "BxPC-3 cells": {"system": "BxPC-3 cells", "test": "MTT cell viability", "type": "cell-based", "details": "Homo sapiens; BxPC-3, 48 hours", "protocol": "as §1, §2"}, "MIAPaCa-2": {"system": "MIAPaCa-2", "test": "Cytotoxicity assay (WST-8)", "type": "cell-based", "details": "Homo sapiens, MIA PaCa-2, 96 h incubation", "protocol": "(§3) Cells were seeded in 96-well culture plates (5,000 cells/well) and treated with titrated compounds in triplicate. After 96 h incubation, cell growth medium was removed and proliferation reagent WST-8 (Sigma) was added to each well and incubated at 37° C. for 1-3 h. Absorbance was then measured with a plate reader at 450 nm with correction at 650 nm. The results were expressed as the percentage of absorbance of treated wells versus that of vehicle control."}, "HCT116 β/w": {"system": "HCT116 β/w", "test": "Cytotoxicity assay (WST-8)", "type": "cell-based", "details": "Homo sapiens, HCT-116, 96 h incubation", "protocol": "as §3"}, "MDA-MB-231": {"system": "MDA-MB-231", "test": "Cytotoxicity assay (WST-8)", "type": "cell-based", "details": "Homo sapiens, MDA-MB-231, 96 h, read-out: Cytotoxicity (IC50, μM) MDA-MB-231", "protocol": "as §3, with “The cytotoxicity of the tested compounds in several cancer cell lines (HCT116 β/w, MIAPaCa-2, and MDA-MB-231) was determined by a cytotoxicity assay, where the results are provided in Table 1. Cells” for “Cells”, “control. IC50, the drug concentration causing 50% growth inhibition, was calculated via sigmoid curve fitting using GraphPad Prism 5.0. […]” for “control.”"}, "[2]": {"system": "panel of cancer cell lines", "test": "Cytotoxicity assay, expanded panel of cell lines", "type": "cell-based", "protocol": "as §3, with “The cytotoxicity of the tested compounds in several cancer cell lines (HCT116 β/w, MIAPaCa-2, and MDA-MB-231) was determined by a cytotoxicity assay, where the results are provided in Table 1. Cells” for “Cells”, “control. IC50, the drug concentration causing 50% growth inhibition, was calculated via sigmoid curve fitting using GraphPad Prism 5.0.” for “control.”\nThe assay was then utilized to assess cytotoxicity of KH-3 against an expanded panel of cell lines (including normal cell line WI-38), where FIGS. 4A-4C provide the results."}, "[3]": {"target": "T1, HuR protein bound to Msi1-Bi (Homo sapiens, UniProt Q15717)", "T1 construct": "endogenous in cells", "T1 sequence (Q15717 2-326 limits assumed)": "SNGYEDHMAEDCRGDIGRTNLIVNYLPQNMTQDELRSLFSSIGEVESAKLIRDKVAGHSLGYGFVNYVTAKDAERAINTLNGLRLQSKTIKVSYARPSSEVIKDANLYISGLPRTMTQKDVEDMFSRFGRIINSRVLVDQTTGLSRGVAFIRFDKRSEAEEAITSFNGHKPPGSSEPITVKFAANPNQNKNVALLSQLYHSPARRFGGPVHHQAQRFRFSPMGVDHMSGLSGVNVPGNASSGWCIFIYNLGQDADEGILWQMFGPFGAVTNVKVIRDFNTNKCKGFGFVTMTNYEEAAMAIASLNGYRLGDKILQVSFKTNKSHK", "test": "Pull-down assay #1, RNA immunoprecipitation with biotinylated Msi1 ARE oligo", "type": "cell-based", "details": "cytoplasmic lysates of treated cells with HuR overexpression", "protocol": "Cells with HuR overexpression were treated with compounds, then the cell cytoplasmic lysates were collected using NE-PER Nuclear and Cytoplasmic Extraction Kit (Thermo Scientific), and subsequently to the cell cytoplasmic lysates were added the biotinylated target ARE oligo from Msi1 mRNA (Msi1-Bi). Following this, streptavidin beads were added to pull down HuR protein bound to Msi1-Bi. Compounds of the present technology blocked the HuR pull-down by the biotinylated ARE oligo, illustrating inhibition of the Hur-mRNA interaction. Unlabeled target AREs were used as positive control. FIG. 6A provides results with KH-3, illustrating KH-3 blocked Msi1-Bi RNA mediated pull-down of HuR protein up to 24%."}, "[4]": {"system": "hTERT-HPNE (non-cancerous human pancreatic ductal epithelial cell line)", "test": "MTT cell viability, non-cancerous cells", "type": "cell-based", "details": "48 hours", "protocol": "as §1, §2"}, "[5]": {"details": "50 mg/kg i.p. five times per week for five weeks"}}, "note": "pIC50: −log10 of the molar value. Entries after “also recorded” stand apart in the source; their conditions may differ."}
{"smiles": "CC(C)(C)c1ccc(S(=O)(=O)Nc2ccc3sc(/C=C/C(=O)NO)cc3c2)cc1", "note": "[KH-3]", "values": [{"measurement": "median survival time", "setting": "[1]; [5]", "result": 81, "unit": "days"}, {"measurement": "median time to initiation of pulmonary metastases", "setting": "[1]; [5]", "result": 71, "unit": "days"}, {"measurement": "side effects", "setting": "[1]; [5]", "result": "minor diarrhea in some mice; also recorded: Some mice had swollen abdomens starting the fourth week of treatment"}, {"measurement": "metastasis rate (mice with pulmonary metastases at the end of experiment)", "setting": "[1]; 50 mg/kg i.p. five times per week for five weeks, 7/9", "result": 77.7, "unit": "%"}, {"measurement": "weight gain", "setting": "[1]; first 43 days of the experiment", "result": "gained weight similar to those in control group"}, {"measurement": "pIC50", "setting": "MIA PaCa2 cells", "result": 5.30}, {"measurement": "pIC50", "setting": "PANC-1 cells", "result": 4.60}, {"measurement": "pIC50", "setting": "BxPC-3 cells", "result": 5.00}, {"measurement": "IC50", "setting": "MIAPaCa-2", "result": 4.5, "unit": "µM"}, {"measurement": "IC50", "setting": "HCT116 β/w", "result": 3.6, "unit": "µM"}, {"measurement": "IC50", "setting": "MDA-MB-231", "result": 4.15, "unit": "µM"}, {"measurement": "cytotoxicity across a panel of cancer cell lines", "setting": "[2]", "result": "potent cytotoxicity"}, {"measurement": "blocking of Msi1-Bi RNA mediated pull-down of HuR protein", "setting": "[3]", "result": "up to 24%"}, {"measurement": "pIC50", "setting": "[4]", "result": "< 4.40"}]}
